Values joined by “and” are separate entries in the source; they are usually repeats but may differ in a detail not shown here. Equal entries are not always repeated. Inconclusive results and toxic doses are left out.
System: BDF1 mice, P388 leukemia ip, median survival T/C
Test: NCI In Vivo Anticancer Drug Screen. Data for tumor model P388 Leukemia (intraperitoneal) in B6D2F1 (BDF1) mice
Settings: endpoint: median survival time, higher = longer survival
How it was run: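 T/C = treated-group survival ÷ vehicle-control survival; tumour transplanted into mice before dosing.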

[1] = dose: 50.0 mg/kg/injection, schedule: Q01DX009 (ip), vehicle: saline with Tween-80
[2] = dose: 100.0 mg/kg/injection, schedule: Q04DX003 (ip), vehicle: saline with Tween-80
[3] = dose: 200.0 mg/kg/injection, schedule: Q04DX003 (ip), vehicle: saline with Tween-80
[4] = dose: 400.0 mg/kg/injection, schedule: Q04DX003 (ip), vehicle: saline with Tween-80
[5] = dose: 100.0 mg/kg/injection, schedule: Q01DX009 (ip), vehicle: Klucel (hydroxypropylcellulose) (HPC)
[6] = dose: 100.0 mg/kg/injection, schedule: Q04DX003 (ip), vehicle: Klucel (hydroxypropylcellulose) (HPC)
[7] = dose: 200.0 mg/kg/injection, schedule: Q01DX009 (ip), vehicle: Klucel (hydroxypropylcellulose) (HPC)
[8] = dose: 200.0 mg/kg/injection, schedule: Q04DX003 (ip), vehicle: Klucel (hydroxypropylcellulose) (HPC)
[9] = dose: 400.0 mg/kg/injection, schedule: Q01DX009 (ip), vehicle: Klucel (hydroxypropylcellulose) (HPC)
[10] = dose: 400.0 mg/kg/injection, schedule: Q04DX003 (ip), vehicle: Klucel (hydroxypropylcellulose) (HPC)
[11] = dose: 100.0 mg/kg/injection, schedule: Q04DX003 (ip), vehicle: saline
[12] = dose: 200.0 mg/kg/injection, schedule: Q04DX003 (ip), vehicle: saline
[13] = dose: 400.0 mg/kg/injection, schedule: Q04DX003 (ip), vehicle: saline
[14] = dose: 200.0 mg/kg/injection, schedule: Q01DX009 (ip), vehicle: saline
[15] = dose: 400.0 mg/kg/injection, schedule: Q01DX009 (ip), vehicle: saline
[16] = dose: 50.0 mg/kg/injection, schedule: Q01DX009 (ip), vehicle: saline
[17] = dose: 50.0 mg/kg/injection, schedule: Q04DX003 (ip), vehicle: saline with Tween-80
[18] = dose: 100.0 mg/kg/injection, schedule: Q01DX009 (ip), vehicle: saline with Tween-80
[19] = dose: 200.0 mg/kg/injection, schedule: Q01DX009 (ip), vehicle: saline with Tween-80
[20] = dose: 400.0 mg/kg/injection, schedule: Q01DX009 (ip), vehicle: saline with Tween-80

CCC[CH2][Sn]1([CH2]CCC)[S]CC[N]1S(=O)(=O)c1ccc(C)cc1
T/C (dose: 3.0 mg/kg/injection, schedule: Q01DX009 (ip), vehicle: gum acacia): 119 % of control

C=C1C(=O)OC2CC(C)C3C=CC(=O)C3(C)C(O)C12 (stereo unspecified)
T/C (dose: 5.0 mg/kg/injection, schedule: Q01DX009 (ip), vehicle: saline with Tween-80): 113 % of control
T/C (dose: 10.0 mg/kg/injection, schedule: Q01DX009 (ip), vehicle: saline with Tween-80): 112 % of control
T/C (dose: 20.0 mg/kg/injection, schedule: Q01DX009 (ip), vehicle: saline with Tween-80): 115 % of control

c1ccc(C(Nc2nccs2)Nc2nccs2)cc1
T/C (dose: 12.5 mg/kg/injection, schedule: Q01DX009 (ip), vehicle: saline with Tween-80): 112 % of control
T/C (dose: 25.0 mg/kg/injection, schedule: Q01DX009 (ip), vehicle: saline with Tween-80): 108 % of control
T/C [1]: 96 % of control and 108 % of control

CC(C)Cc1[nH]nc2c1C(=O)C(Nc1ccccc1)=CC2=O
T/C [2]: 99 % of control
T/C [3]: 100 % of control
T/C [4]: 100 % of control

C(#CSCc1ccccc1)SCc1ccccc1
T/C [5]: 105 % of control
T/C [6]: 87 % of control
T/C [7]: 100 % of control
T/C [8]: 100 % of control
T/C [9]: 100 % of control
T/C [10]: 91 % of control

CC(=O)Nc1ccc(C=Nc2ccc3c(c2)Cc2ccccc2-3)cc1
T/C [5]: 109 % of control
T/C [7]: 118 % of control
T/C [9]: 118 % of control

O=Nc1ccc2ccccc2c1O
T/C (dose: 50.0 mg/kg/injection, schedule: Q01DX001 (ip), vehicle: Klucel (hydroxypropylcellulose) (HPC)): 107 % of control
T/C (dose: 100.0 mg/kg/injection, schedule: Q01DX001 (ip), vehicle: Klucel (hydroxypropylcellulose) (HPC)): 104 % of control

O=[N+]([O-])c1ccc(-c2ncc3cnccn23)cc1
T/C [11]: 111 % of control
T/C [12]: 97 % of control
T/C [13]: 102 % of control

NC(=O)CC(N)C(=O)O (stereo unspecified)
T/C [14]: 100 % of control
T/C (dose: 200.0 mg/kg/injection, schedule: Q01DX010 (ip), vehicle: other): 110 % of control
T/C [15]: 100 % of control
T/C (dose: 400.0 mg/kg/injection, schedule: Q01DX010 (ip), vehicle: other): 120 % of control
T/C (dose: 400.0 mg/kg/injection, schedule: Q01DX010 (ip), vehicle: saline with Tween-80): 86 % of control
T/C (dose: 800.0 mg/kg/injection, schedule: Q01DX009 (ip), vehicle: saline): 110 % of control
T/C (dose: 800.0 mg/kg/injection, schedule: Q01DX010 (ip), vehicle: other): 100 % of control
T/C (dose: 1600.0 mg/kg/injection, schedule: Q01DX009 (ip), vehicle: saline): 115 % of control
T/C (dose: 1600.0 mg/kg/injection, schedule: Q01DX010 (ip), vehicle: other): 115 % of control
T/C (dose: 1600.0 mg/kg/injection, schedule: Q01DX010 (ip), vehicle: saline with Tween-80): 150 % of control

COC(=O)C1CCN1C(C)(C)C (stereo unspecified)
T/C [11]: 100 % of control
T/C [12]: 90 % of control
T/C [13]: 90 % of control

CCCCSCC(N)C(=O)O (stereo unspecified)
T/C [5]: 116 % of control
T/C [6]: 104 % of control
T/C [7]: 121 % of control
T/C [8]: 104 % of control
T/C [9]: 111 % of control
T/C [10]: 95 % of control

CC(=O)Oc1ccc(OC(C)=O)c2c1CC(C)=C(C)C2
T/C [16]: 107 % of control
T/C (dose: 100.0 mg/kg/injection, schedule: Q01DX009 (ip), vehicle: saline): 113 % of control
T/C [11]: 109 % of control
T/C [14]: 109 % of control
T/C [12]: 116 % of control
T/C [15]: 118 % of control

O=S(=O)(O)c1ccc(-c2ccc(S(=O)(=O)O)cc2)cc1 (tested in a mixture with another compound)
T/C (dose: 21.0 mg/kg/injection, schedule: Q04DX003 (ip), vehicle: saline): 200 % of control
T/C (dose: 33.0 mg/kg/injection, schedule: Q04DX003 (ip), vehicle: saline): 270 % of control
T/C (dose: 50.0 mg/kg/injection, schedule: Q04DX003 (ip), vehicle: saline): 300 % of control
T/C (dose: 110.0 mg/kg/injection, schedule: Q04DX003 (ip), vehicle: saline): 300 % of control

O=C1OCCN1/N=C\c1ccccc1
T/C (dose: 100.0 mg/kg/injection, schedule: Q01DX001 (ip), vehicle: olive oil, sesame oil, peanut oil): 95 % of control
T/C (dose: 200.0 mg/kg/injection, schedule: Q01DX001 (ip), vehicle: olive oil, sesame oil, peanut oil): 104 % of control
T/C (dose: 400.0 mg/kg/injection, schedule: Q01DX001 (ip), vehicle: olive oil, sesame oil, peanut oil): 104 % of control

O=C(CC/[N+]([O-])=C/c1ccccc1)OCc1ccccc1
T/C (dose: 12.5 mg/kg/injection, schedule: Q01DX009 (ip), vehicle: other): 92 % of control
T/C (dose: 25.0 mg/kg/injection, schedule: Q01DX009 (ip), vehicle: other): 97 % of control
T/C (dose: 50.0 mg/kg/injection, schedule: Q01DX009 (ip), vehicle: other): 103 % of control
T/C (dose: 100.0 mg/kg/injection, schedule: Q01DX009 (ip), vehicle: other): 97 % of control
T/C (dose: 200.0 mg/kg/injection, schedule: Q01DX009 (ip), vehicle: other): 92 % of control

O=C(CC(O)(C(F)(F)Cl)C(F)(F)Cl)c1cccs1
T/C (dose: 100.0 mg/kg/injection, schedule: Q01DX001 (ip), vehicle: saline with Tween-80): 95 % of control
T/C (dose: 200.0 mg/kg/injection, schedule: Q01DX001 (ip), vehicle: saline with Tween-80): 100 % of control
T/C (dose: 400.0 mg/kg/injection, schedule: Q01DX001 (ip), vehicle: saline with Tween-80): 100 % of control

O=C(CBr)Nc1nccs1
T/C (dose: 1.56 mg/kg/injection, schedule: Q01DX009 (ip), vehicle: saline): 100 % of control
T/C (dose: 3.12 mg/kg/injection, schedule: Q04DX003 (ip), vehicle: saline): 95 % of control
T/C (dose: 6.25 mg/kg/injection, schedule: Q01DX009 (ip), vehicle: saline): 97 % of control
T/C (dose: 6.25 mg/kg/injection, schedule: Q04DX003 (ip), vehicle: saline): 94 % of control and 102 % of control
T/C (dose: 12.5 mg/kg/injection, schedule: Q01DX009 (ip), vehicle: saline): 90 % of control
T/C (dose: 12.5 mg/kg/injection, schedule: Q04DX003 (ip), vehicle: saline): 91 % of control and 97 % of control
T/C (dose: 25.0 mg/kg/injection, schedule: Q01DX009 (ip), vehicle: saline): 97 % of control
T/C (dose: 25.0 mg/kg/injection, schedule: Q04DX003 (ip), vehicle: saline): 91 % of control and 97 % of control and 100 % of control
T/C [16]: 104 % of control

O=[N+]([O-])c1ccc(Cc2ccncc2)cc1
T/C (dose: 37.5 mg/kg/injection, schedule: Q01DX009 (ip), vehicle: saline sonified): 100 % of control
T/C (dose: 75.0 mg/kg/injection, schedule: Q01DX009 (ip), vehicle: saline sonified): 95 % of control
T/C (dose: 150.0 mg/kg/injection, schedule: Q01DX009 (ip), vehicle: saline sonified): 95 % of control

c1ccc2c(c1)C1CCC2c2ccccc21
T/C [17]: 100 % of control
T/C [2]: 100 % of control
T/C [3]: 88 % of control and 100 % of control
T/C [4]: 100 % of control

COc1ccc(N=C(c2ccccc2)c2ccccc2)cc1
T/C [18]: 91 % of control
T/C [2]: 92 % of control
T/C [19]: 108 % of control
T/C [3]: 100 % of control
T/C [20]: 108 % of control
T/C [4]: 96 % of control

COc1cc(Cl)ccc1C
T/C [1]: 100 % of control
T/C [17]: 104 % of control
T/C (dose: 88.0 mg/kg/injection, schedule: Q01DX009 (ip), vehicle: saline with Tween-80): 108 % of control and 114 % of control
T/C [18]: 120 % of control
T/C [2]: 113 % of control
T/C (dose: 132.0 mg/kg/injection, schedule: Q01DX009 (ip), vehicle: saline with Tween-80): 108 % of control
T/C [19]: 120 % of control and 123 % of control
T/C [3]: 118 % of control
T/C (dose: 300.0 mg/kg/injection, schedule: Q01DX009 (ip), vehicle: saline with Tween-80): 123 % of control

Cc1ccc(S(=O)(=O)OCCC2CCCCC2COS(=O)(=O)c2ccc(C)cc2)cc1 (stereo unspecified)
T/C [5]: 105 % of control
T/C [7]: 100 % of control
T/C [9]: 110 % of control

Cc1cccc(NNC(=S)Nc2ccccc2)c1
T/C [18]: 104 % of control
T/C [19]: 95 % of control
T/C [20]: 104 % of control
